As a reminder, the solubility is how much of the substance goes into solution per volume. Low values mean a poorly soluble substance, high ones a readily soluble substance.

This note sets out measurements from patent US20260159474A1, “Aminoindane Compounds and Compositions and Methods of Their Therapeutic Use” (Solvonis Therapeutics Ireland Holdings Limited, priority 2021, published 2026).

Each structure is given as a SMILES string. ≈ marks a conversion by molar mass, not a printed value. Where “and” joins values, the source holds several entries; their conditions need not be identical. Identical values can stand only once.

The nature of data set [1]: Solubility in PBS (pH 7.4), HPLC-UV. In kind it is physicochemical. To be noted: for solubility at 120 min: PBS pH 7.4, room temperature, 2% DMSO; for Characterization (solubility class): PBS pH 7.4. The protocol:
Stock solutions of therapeutic compounds (20 mM) were prepared in DMSO, on the same day of the experiment when feasible. These solutions were compared with an external standard solution of known concentration via HPLC-UV. To prepare the standard, 4 μL from a 20 mM compound stock solution was added to DMSO in a vial/well, and mixed with shaking at room temperature for 10 minutes. The standard buffer used for the assessment was PBS buffer (pH 7.4), but alternative buffers may also be used, such as biologically relevant Fluids, including Simulated Gastric fluid (SGF) at pH 1.2, Fasted State Simulated Intestinal Fluid (FaSSIF) at pH 6.5, and Fed State Simulated Intestinal Fluid (FeSSIF) at pH 5.0.
An isotonic phosphate buffer (iPBS) was prepared by dissolving a phosphate buffered saline tab (Sigma-Aldrich P4417-50Tab) in 200 mL of deionized water, the final composition of the solution being 10 mM PBS, 2.7 mM kCl, and 137 mM NaCl, yielding a final pH of 7.4 at 25° C. Samples were prepared by dispensing 8 μL from a 20 mM compound stock solution in DMSO in a vial/well in duplicate, adding 392 μL of buffer in each vial/well, and mixed by shaking at room temperature for 120 minutes. The final compound concentration was approximately 400 μM, while the final concentration of DMSO was about 2%. The solutions were then filtered prior to analysis.
Concentrations were determined by comparing UV absorbance of the test solution and of the known standard solution following HPLC separation using a generic fast gradient method employing a DAD detector and UV detection at 230 and 254 nm. Concerning the HPLC Mobile phase, Phase A was a 50 mM ammonium acetate aqueous solution (pH adjusted to 7.4 with ammonia), and Phase B was acetonitrile. For data analysis, chromatographic peaks were automatically integrated, and the parameters were optimized to enable consistent integration of all chromatograms in the entire analytical run. The solubility of each compound was expressed as the ratio of compound amount in the sample test solution to the amount of compound in the standard solution, calculated from the equation “solubility of sample=peak area of sample/peak area of standard×concentration of standard.”

Data set [2] has as its system extracellular serotonin (5-HT) in the nucleus accumbens (NAcc). Briefly: In vivo microdialysis in rat nucleus accumbens, serotonin. Details: species or system Sprague Dawley rats. The note with it: 7 mg/kg I.P.; for peak 5-HT level: baseline = 100%; for Serotonin (5-HT) level (% from baseline): rat NAcc. The protocol: Methods and Procedure: This study was conducted in compliance with previously described procedures to assure data integrity, adherence to GLP regulations, and standard preclinical study and surgery procedures. The in vivo microdialysis technique was applied to measure the over-time variations of DA, 5-HT, and NE extracellular (EC) concentrations in conscious, freely-moving Sprague Dawley rats. Levels of the neurotransmitters in microdialysis samples were determined using LC-MS/MS analysis. The experiment was also conducted with MDMA for comparative purposes.
As it relates to cannula implantation, the rats were anesthetized with isoflurane 4% in oxygen (2-2.5 L/min), then the isoflurane concentration 2-2.5% was maintained via a nose cone adapted to the stereotaxic apparatus. The rats were treated with meloxicam (0.2 mg/kg, subcutaneously, sc; Meloxidolor) and amoxicilline (150 mg/kg, sc, Betamox LA). The skull was then shaved and disinfected. Rats were then placed in a stereotaxic apparatus for small animals. One vertical guide cannula was inserted through a 1 mm hole drilled on the exposed skull. Coordinates, with respect to the bregma to target specific brain areas, followed indications from stereotaxic atlas of the rat brain. Specifically a guide cannula (MAB 4.12.IC, Agn Tho's AB, Lidinga, Sweden) was inserted in the NAcc (anteroposterior+1.6; lateral −1.6; dorsoventral −6.0). The guide cannula was then secured with dental cement and 2-4 screws. At the end of the surgery the animal was isolated in a single cage during recovery, for a period of at least one week, during which animal health conditions were checked twice daily and the weight recorded twice a week. Animals continued to be housed singly throughout the experiment. One day before the experiment the cannula stylet was removed and a microdialysis probe with a dialyzing length of 2 mm (MAB 4.12.2 Cu, Agn Tho's AB, Lidingo, Sweden) was inserted. Probes can be re-used 2 times for 2 experimental sessions after appropriate cleaning with fresh milliQ water.
Post-surgery, the rats were maintained in a heating chamber prior to waking up in order to avoid hypothermia that could be caused by anaesthesia. 5 mL of physiologic solution was subcutaneously administered immediately after surgery, and once/day for 2-3 days, if signs of dehydration are noticed. Meloxicam (Meloxidolor) 0.2 mg/kg was again administered subcutaneously the day after surgery as well as after 48 h after surgery together with Amoxicilline Long Acting (Betamox LA) 150 mg/kg. Health status and body weight was checked every day during the first week.
The animals were treated with the therapeutic compounds, and MDMA, or their vehicle (saline) according to a Latin square design over 5 separate experimental days (one day/week). The treatments were administered in a volume of 1 mL/kg intraperitoneally.
On the day of the experiment, each animal was taken into the laboratory in its home cage. Inlet tubing of the probe was attached to a dual quartz-lined two channel liquid swivel mounted on a low mass spring counterbalance arm which, in turn, was connected to a gas-tight syringe on a microinfusion pump. […] An equilibration period of about two hours of perfusion was allowed before collecting samples. Following the equilibration period, 4 basal samples were collected for each experimental animal followed by further 10 post-treatment samples. Samples were collected every 20 minutes (up to 3 hours and 20 minutes post-treatment) by means of a refrigerated auto-sampler (Univentor 820 Microsampler, AgnTho's, Sweden) maintained at +8 “C. At the end of all experimental sessions, 2 μL of 0.1% methylene blue solution was injected through the microdialysis probe, animals were euthanized, and their brains removed to confirm the correct probe-position.
As mentioned, the concentration of DA, 5-HT and NE in CSF samples were determined using an optimized method based on LC-MS/MS analysis. […]

Setting [3] is: PBS buffer, aqueous buffer, kinetic from dmso stock.

In data set [1] (setting [3]), `COc1ccc2c(c1)CC(N)C2` (stereo not shown) [MEAI, 5-methoxy-2-aminoindane] gave a solubility at 120 min of 374 µM (≈ 61 µg/mL). In data set [1], the “Characterization (solubility class)” value is on record as “High solubility”. Besides, the “time of peak 5-HT level” value in data set [2] (rat NAcc microdialysis) is listed as 40 min. Further, the “peak 5-HT level” value in data set [2] (rat NAcc microdialysis, 7 mg/kg) was 2365% and ~2500%. Further, the “Serotonin (5-HT) level (% from baseline)” value in data set [2] (0 min (basal sample)) is reported as 98%; in data set [2] (20 min post-admin), 446%; in data set [2] (40 min post-admin), 2365%; in data set [2] (60 min post-admin), 2248%; in data set [2] (80 min post-admin), 1391%; in data set [2] (100 min post-admin), 1036%. For the same molecule, the “Serotonin (5-HT) level (% from baseline)” value in data set [2] (120 min post-admin) amounted to 830%; in data set [2] (140 min post-admin), 688%; in data set [2] (160 min post-admin) it was 564%; in data set [2] (180 min post-admin, 7 mg/kg), 470%; in data set [2] (200 min post-admin) it was 340%; in data set [2] (−20 min (basal sample)), 102%.
For `CNC(C)Cc1ccc2c(c1)OCO2` (stereo not shown) [MDMA], the “Characterization (solubility class)” value in data set [1] is recorded as “High solubility”. Also, in data set [1], the solubility at 120 min is given as 386 µM (≈ 74.6 µg/mL). Moreover, the “time of peak 5-HT level” value in data set [2] (rat NAcc microdialysis) is 60 min. For the same molecule, in data set [2] (rat NAcc microdialysis), the “peak 5-HT level” value worked out at 2232%. For the same molecule, the “Serotonin (5-HT) level (% from baseline)” value in data set [2] (0 min (basal sample)) is listed as 98%; in data set [2] (20 min post-admin), 135%; in data set [2] (40 min post-admin), 2000%; in data set [2] (60 min post-admin), 2232%; in data set [2] (80 min post-admin) it was 1780%; in data set [2] (100 min post-admin), 1545%. Moreover, the “Serotonin (5-HT) level (% from baseline)” value is 1472% in data set [2] (120 min post-admin); 1255% in data set [2] (140 min post-admin); 1083% in data set [2] (160 min post-admin); 980% and 972% in data set [2] (180 min post-admin, 7 mg/kg); 871% in data set [2] (200 min post-admin); 102% in data set [2] (−20 min (basal sample)).
The molecule `COC(=O)c1ccc2c(c1)CC(N)C2` (stereo not shown) [CMP-405, 2-aminoindane-5-methylcarboxylate] had a solubility at 120 min in data set [1] (setting [3]) of 392 µM (≈ 75 µg/mL). For the same molecule, the “Characterization (solubility class)” value in data set [1] is recorded as “High solubility”. Further, the “time at which 5-HT levels returned to baseline” value in data set [2] (rat NAcc microdialysis) came to 180 min. The “time of peak 5-HT level” value in data set [2] (rat NAcc microdialysis) was determined as 60 min. For the same molecule, the “peak 5-HT level” value in data set [2] (rat NAcc microdialysis) was determined as 289%. Moreover, the “Serotonin (5-HT) level (% from baseline)” value is on record as 97% in data set [2] (0 min (basal sample)); 114% in data set [2] (20 min post-admin); 353% in data set [2] (40 min post-admin); 289% in data set [2] (60 min post-admin); 182% in data set [2] (80 min post-admin); 157% in data set [2] (100 min post-admin). The “Serotonin (5-HT) level (% from baseline)” value is 140% in data set [2] (120 min post-admin); 115% in data set [2] (140 min post-admin); 113% in data set [2] (160 min post-admin); 100% in data set [2] (180 min post-admin); 105% in data set [2] (200 min post-admin); 103% in data set [2] (−20 min (basal sample)).
